One compound from publication PMC2822779, “A glycine receptor is involved in the organization of swimming movements in an invertebrate chordate” (BMC Neuroscience, 2010) can be followed below.

The assay concerns the target T1, Ci-GlyR (Ciona intestinalis, UniProt D2KU21).
T1 construct: single subunit expressed alone; no tag stated; cDNA from hatched larvae
T1 sequence (D2KU21 25-491): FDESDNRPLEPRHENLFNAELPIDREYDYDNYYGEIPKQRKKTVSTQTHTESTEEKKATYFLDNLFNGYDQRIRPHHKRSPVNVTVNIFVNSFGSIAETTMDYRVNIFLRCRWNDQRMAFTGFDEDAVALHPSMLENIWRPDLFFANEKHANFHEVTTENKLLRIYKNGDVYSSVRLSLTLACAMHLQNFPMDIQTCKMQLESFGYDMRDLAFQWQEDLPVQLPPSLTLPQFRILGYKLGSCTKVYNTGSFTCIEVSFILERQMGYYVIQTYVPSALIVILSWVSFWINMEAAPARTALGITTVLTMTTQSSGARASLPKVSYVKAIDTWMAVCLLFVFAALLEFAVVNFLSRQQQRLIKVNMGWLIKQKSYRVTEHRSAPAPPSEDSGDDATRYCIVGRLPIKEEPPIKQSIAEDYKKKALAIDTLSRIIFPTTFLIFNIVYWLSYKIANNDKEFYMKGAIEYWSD
In words: two-electrode voltage clamp, Xenopus oocytes. In kind it is cell-based.

Compound `NCC(=O)O` [glycine] came in with an EC50 of roughly 750 µM.
